Data published in patent US20090028798A1, “METHOD FOR DETERMINING REDOX STATUS OF A TISSUE” (Government of the USA, represented by the Secretary, …, priority 2005, published 2009).
Marks after values point to notes of the source that are not given here.

Key:
[1] = Nitroxyl radical decay rate in tissues, from change in MRI contrast over time; format: in vivo, mice; settings: for Decay Rate: MRI, mean ± SD
Experimental: In the inventive method, the amount of reduced nitroxyl contrast agent (i.e., hydroxylamine) in the animal tissue is determined. This determination can be made using any suitable method. For example, MRI contrast changes and the difference in concentration of a nitroxyl contrast agent, such as 3CP, show linearity in low concentration level (i.e., below 1.5 mM). To perform T1 and T2 mapping, spin echo images can be obtained using a multi-slice multi-echo (MSME) sequence. For instance, a time sequence of the total number of SPGR images may be determined. The images can then be averaged and each image may be divided by the averaged initial image. Semi-logarithmic values of the averaged image intensity in a given region of interest can be plotted versus time after injection. The change in intensity can be determined at one or more time points after injection of a nitroxyl contrast agent. For example, changes in intensity may be made every 10 s, 20 s, 30, 40 s, 50 s, or every 1, 5, 7, 10, 15, 20 minutes, or any integer in between, after injection of a nitroxyl contrast agent. A decay rate can be obtained from the linear part of the slope after peak by the least squares method. A sample calculation of a decay rate using nitroxyl contrast agent 3CP is as follows: The spoiled gradient echo (SPGR) image intensity Mt at time t after nitroxyl contrast agent injection can be calculated using the equation:
Mt=M0×[1−EXP(−TR/T1t)]×EXP(−TE/T2)×{sin α/[1−cos α×EXP(−TR/T1t)]}.
In the above equation, MO is proton density, and a is flip angle. Tissue (or sample) T1 can change with particular time t (min.) (T1t) depending on the concentration of the 3CP (Ct). T1t[…]1/R1t and R1t=1/T1i+r1×Ct, where R1t is T1 relaxation […] t, the relaxivity r1 of 3CP is 0.17 mM^−1s-1, T1i is the initial T1 base line (intrinsic tissue T1). Ct (mM), which is the first concentration of 3CP at particular time t (min.), is calculated by assuming first order decay as indicated by the equation Ct=Cmax×EXP([…]), where ktrue is the given decay rate. Logarithmic values of the intensity change from the baseline (ie. ΔM % t=(Mt/Mi−1)×100 or ΔMt=Mt−Mi), can be plotted with time t. Mi is the intrinsic signal intensity of the tissue (or sample) calculated as Ct=0. The decay constant kMRI can be obtained from the slopes of the plots ΔM % t and ΔMt by least square fit.
Typical decay rates, determined by a change in intensity over time, are shown in Table 1 and FIG. 1 for nitroxyl contrast agents Tempol, Carbamoyl-PROXYL, Carboxyl-PROXYL in normal tissue, tumor, blood, and left and right kidney tissues. These decay rates may then be used to determine the redox status of the tissue. When a decay rate is calculated pixel-wise, redox mapping can be obtained. That is, regions showing a faster rate of decay correspond to hypoxic regions.

[2] = Relaxation time and relaxivity of nitroxyl contrast agents compared with Gd-DTPA; format: physicochemical
Description: The present invention is predicated on the difference in reducing capability and provides a method of determining the redox status of a region of interest in an animal tissue, such as a tumor. By determining the redox status of a tumor it is possible to not only diagnose a tumor due to its enhanced reduction of intracellular nitroxide contrast agent, but also to determine appropriate radiation treatment fields spatially to deliver therapeutic doses of radiation, and to determine appropriate timing sequences after the administration of a nitroxide contrast agent such that the maximum difference between normal and tumor tissue with respect to the radioprotective form of the nitroxide is present in the normal tissue, thereby limiting collateral damage to the normal tissue. The T1-contrast afforded by the nitroxide class of compounds, by virtue of their paramagnetic relaxivity which is in the range of 0.2 (mM s)−1 makes it possible to use standard MRI scanners to obtain the redox information in the inventive method. Typical relaxivity and relaxation times are shown for various nitroxyl contrast agents compared with a standard contrast agent, Gd-DTPA, in Table 1. […] Without being bound to any particular theory, it is believed that the T1 relaxation of protons could be affected by paramagnetic electron spin. Therefore, a change of MRI contrast before and after administration of a nitroxyl spin probe (i.e., a nitroxide contrast agent) should reflect the amount of nitroxyl in addition to providing anatomical mapping simultaneously. Such anatomical mapping provides the ability to diagnose the existence of a tumor, determine the status of a tumor, determine borders of a radiation treatment field, determine appropriate timing and dosage for radiation treatment, as well as determining the efficacy of radiation and other forms of cancer treatment.

[3] = Decay rate of nitroxyl contrast agent by 300 MHz CW EPR imaging (EPRI); format: in vivo, C3H mice; settings: 1.8 μmol/g b.w. i.v., mean ± SD
Experimental: (§1) Female C3H mice were supplied by the Frederick Cancer Research Center, Animal Production (Frederick, Md.). Animals, received at six weeks of age, were housed five per cage in climate controlled circadian rhythm-adjusted rooms and were allowed food and water ad libitum. Experiments were carried out in compliance with the Guide for the Care and Use of Laboratory Animal Resources (1996), National Research Council, and approved by the National Cancer Institute Animal Care and Use Committee. Experiments were performed within 4 weeks of their arrival at the facility. Their body weight measured before the experiments was in the range 25-28 g. A squamous cell carcinoma was implanted and grown on the right hind leg for a week.
Mice were anesthetized by isoflurane (1.5%) in medical air (700 mL/min). Both tumor and normal legs were placed on special mouse holder and fixed with adhesive tapes on the divider between both legs. […]
(§2) The EPRI and MRI data were analyzed using the ImageJ software package (a public domain Java image processing program inspired by NIH Image that can be extended by plug-ins, http://rsb.info.nih.gov/ij/). T1 and T2 mappings were calculated using a plug-in (MRI analysis calculator, Karl Schmidt, HypX Laboratory, Brigham and Women's Hospital) available in ImageJ.
A time course of CW EPR imaging after injection of a nitroxyl contrast agent was determined. […]

[4] = Decay rate of nitroxyl contrast agent by in vivo 700 MHz EPR spectroscopy with surface coil (EPRS); parameters: species or system C3H mice; settings: linear part 7.5-20 min, mean ± SD
Experimental: as §1
In vivo EPR spectroscopic measurement of the nitroxyl probe were obtained. Mice were anesthetized and placed on special mouse holder and fixed with adhesive tapes. The single loop surface coil (7.3 mm i.d.) was placed on the normal or the tumor leg. EPR signal was measured by CW EPR at 700 MHz. EPR conditions were as follows: microwave frequency=700 MHz, microwave power=10 mW, field modulation frequency=13.5 kHz, field modulation amplitude=0.3 Gauss, time constant=0.03 s, sweep width=60 Gauss, scan time=8 s. The center line of the triplet was repeatedly obtained every 20 s for 20 min. […]

[5] = Decay rate of nitroxyl contrast agent by 4.7 T SPGR T1-weighted MRI; format: in vivo, C3H mice; settings: 1.5 μmol/g b.w. i.v., mean ± SD
Experimental: as §1
MRI and pulse sequence measurements were also obtained. MRI measurements were performed at 4.7 T controlled with ParaVision®3.0.1 (Bruker BioSpin MRI GmbH, Rheinstetten, Germany). […]
as §2, with “ImageJ. […]” for “ImageJ.”

Row | SMILES | Decay Rate ([1]; Blood) [min⁻¹] | Decay Rate ([1]; Left Kidney) [min⁻¹] | Decay Rate ([1]; Normal Leg) [min⁻¹] | Decay Rate ([1]; Right Kidney) [min⁻¹] | Decay Rate ([1]; Tumor Leg) | rate of decay, tumor versus normal tissue ([1]; in vivo MRI, FIG. 2) | Relaxivity [2] [mM⁻¹ s⁻¹] | relaxivity r1 ([2]; value used in sample decay-rate calculation) [mM⁻¹ s⁻¹] | Normal Leg Decay Rate ([3]; normal leg) [min⁻¹] | Tumor Leg Decay Rate ([3]; squamous cell carcinoma leg) [min⁻¹] | Normal Leg Decay Rate ([4]; normal leg) [min⁻¹] | Tumor Leg Decay Rate ([4]; squamous cell carcinoma leg) | Normal Leg Decay Rate ([5]; normal leg) [min⁻¹] | Tumor Leg Decay Rate ([5]; squamous cell carcinoma leg)
1 | CC1(C)CC(O)CC(C)(C)N1[O] [Tempol, 2,2,6,6-tetramethyl-4-piperidinol-N-oxyl] | 1.025 ± 0.213 | 1.470 ± 0.199 | 0.319 ± 0.025 | 1.160 ± 0.333 | 1.095 ± 0.203** min^−1 | greater in tumor versus normal tissue | – | – | – | – | – | – | – | –
2 | CC1(C)CC(C(=O)O)C(C)(C)N1[O] (stereo not drawn) [Carboxy-PROXYL] | – | – | – | – | – | – | 0.180 | – | – | – | – | – | – | –
3 | CC1(C)CC(C(N)=O)C(C)(C)N1[O] (stereo not drawn) [Carbamoyl-PROXYL, 3-carbamoyl-2,2,5,5-tetramethyl-1-pyrrolidine-N-oxyl] | – | – | – | – | – | – | 0.171 | 0.17 | 0.0356 ± 0.0122 | 0.0468 ± 0.0086 | 0.0551 ± 0.0059 | 0.0669 ± 0.0144* min^−1 | 0.0766 ± 0.0070 | 0.1073 ± 0.0057* min^−1
